Molecules are shown by their SMILES.

These results are taken from patent publication US20240299347A1, “METHODS AND COMPOSITIONS TO TREAT HUNTINGTON'S DISEASE BY TARGETING ALOX5- MEDIATED FERROPTOSIS” (The Trustees of Columbia University in the City of New York, priority 2023, published 2024).

The subject of test [1] is HTTQ94 Tet-on HT-22 cells. Description: Cell death assay, HTTQ94 Tet-on HT-22 cells treated with glutamate. As to conditions: doxycycline 0.5 μg/ml and glutamate 10 mM, 20 h; for effect of inhibitor on HTTQ94-mediated ferroptosis upon glutamate induction: Ferr-1 2 μM, Zileuton 10 μM. The test is classed as cell-based, mouse.
Description: (G) Cell death assay in HTTQ94 Tet-on HT-22 cells. Cells were transfected with control siRNA (ctrl) or ALOX5 siRNA, followed by incubation with doxycycline (0.5 μg/ml) and glutamate (10 mM) for 16 h in the presence or absence of Ferr-1 (2 μM). Cell death were calculated from three replicates; Data shown in (A), (C), (E) and (G) are means±SD. P-values were derived from two-tailed unpaired t-test.
(E) Cell death assay. The HTTQ94 Tet-on HT-22 cells were treated with doxycycline (0.5 μg/ml) and glutamate (10 mM) in the presence or absence of Ferr-1(2 μM) or Zileuton (10 μM) for 20 h. […] Data shown in (B), (C), (D) and (E) are are means±SD. P-values were derived from two-tailed unpaired t-test.
Cells were plated at 20˜30% density one day prior to siRNAs transfection.
Cells were treated with ferroptosis inducer TBH or erastin or glutamate combined with other drugs or conditions. At indicated time points, cells were trypsinized and stained with trypan blue followed by counting with a hemocytometer using the cell number counter (Life technologies countess II). Living cells and dead cells were all counted, and cells stained blue were considered as dead cells.
The test system of test [2] is mHTT-mediated ferroptosis. The experiment in a line: mHTT-mediated ferroptosis (summary statement). The following applies: general statement. The test is classed as cell-based.
The test system of test [3] is HTTQ94 Tet-on HT-22 cells. Description: Cell death assay, HTTQ94 Tet-on HT-22 cells under ROS stress (TBH). The format is cell-based, mouse. As to conditions: for effect of inhibitor on HTTQ94-mediated cell death upon ROS stress: then TBH 10 μM 8 h, Ferr-1 2 μM, Lipro-1 2 μM, DFO 100 μM, zVAD 10 μM, 3 MA 2 mM, Nec1 10 μM, Zileuton 10 μM, MK886 10 μM.
Description: (A) Representative phase-contrast images of cell death from the HTTQ94 tet-on HT-22 cells. HTTQ94 Tet-on HT-22 cells were pre-incubated with doxycycline (0.5 μg/ml) for 4 h, and then treated with TBH (10 μM) for 8 h in the presence or absence of the ferroptosis inhibitors (ferrostatin-1, Ferr1, 2 μM; liproxstatin-1, Lipor1, 2 μM and DFO, 100 μM), apoptosis inhibitor (Z-VADFMK, zVAD, 10 μM), autophagy inhibitor (3-methylademine, 3 MA, 2 mM) or necroptosis inhibitor (necrostatin-1, Nec1, 10 μM). (B) Quantification of cell death, related to panel A. Three replicates for each group. […] Cell death were calculated from three replicates; Data shown in (B), (C), and (E) are means±SD. P-values were derived from two-tailed unpaired t-test. (***) P≤0.001, (**) P≤0.01, (*) P≤0.05, (n.s.) P >0.05.
Test [4] relates to HT-22 HTTQ94 inducible cells. Description: TfR1 immunofluorescence staining of ferroptotic cells. The test is classed as cell-based, mouse. The following applies: doxycycline 1 μg/ml O/N. As to the method: FIGS. 13A-D. TfR1 staining is able to specifically recognize ferroptotic cells induced by HTTQ94 expression. (A) Limb clasping analysis in HD and HD/Alox5null mice (9-, 11- and 13-week-old). p<0.01, n=7. (B-D), TfR1 staining in HT-22 HTTQ94 inducible cells upon TBH treatment. HT-22 HTTQ94 inducible cells were treated 1 μg/ml doxycycline O/N to induce HTTQ94 expression, followed by treatment with 30 μM TBH for 6 h, and then cells were stained with TfR1 antibody. (B) Representative images of TfR1 staining. (C) Quantification of TfR1 staining. (D) Cell death assay, related to panel B. Data shown in (A) are means±SD. Data shown in (C) and (D) are means±SEM. P-values were derived from two-tailed unpaired t-test. (***) P<0.001, (**) P≤0.01, (*) P<0.05, (n.s.) P >0.05.
For cell line: HT-22 HTTQ94 inducible cells were fixed with 2% paraformaldehyde at RT for 20 min, and then incubated with blocking buffer (10% donkey serum, 0.3% Triton X-100 in PBS), followed by incubation with TfR1 antibody (1: 250, Thermo Fisher Scientific, Cat #13-6800) for 1 h, and then incubation with Alexa 568 conjugated secondary antibody (1:250, Thermo Fisher Scientific, Cat #A11004) for additional 1 h.

The subject of test [5] is HTTQ94 Tet-on HT-22 cells. Description: Cell death assay, HTTQ94 Tet-on HT-22 cells treated with erastin. The following applies: doxycycline 0.5 μg/ml 4 h, then Erastin 1 μM 12 h; Ferr-1 2 μM, ROSI 10 μM, TRO 10 μM. The format is cell-based, mouse.
Description: (B) HTTQ94 Tet-on HT-22 cells were pre-incubated with doxycycline (0.5 μg/ml) for 4 h, and then treated with Erastin (1 μM) for 12 h with/without Ferr-1 (2 μM). […] (E) Cell death assay. Control, HTTQ94 and HTTQ19 fragment Tet-on H1299 cells pre-incubated with doxycycline (0.5 μg/ml) for 16 h were treated with Erastin (30 μM) for 48 h with/without Ferr-1 (2 μM). Cell death were calculated from three replicates; Data shown in (B) and (E) are the means±SD. P-values were derived from two-tailed unpaired t-test. (***) P≤0.001, (**) P≤0.01, (*) P≤0.05, (n.s.) P >0.05.
(A) Cell death assay. HTTQ94 Tet-on HT-22 cells pre-incubated with doxycycline (0.5 μg/ml) for 4 h were treated with Erastin (1 μM) for 12 h in the presence or absence of ferrostatin-1 (Ferr-1, 2 μM) or ACSL4 inhibitors (rosiglitazone, ROSI, 10 μM; troglitazone, TRO, 10 μM). (B) Cell death assay. […] Cell death were calculated from three replicates. […]
Cells were treated with ferroptosis inducer TBH or erastin or glutamate combined with other drugs or conditions. […] Living cells and dead cells were all counted, and cells stained blue were considered as dead cells. Quantification of cell death was further confirmed using ToxiLight Non-destructive Cytotoxicity BioAssay Kit (LT07-117; Lonza). Data were collected using GloMax® Explorer Multimode Microplate Reader (Promega).
The test system of test [6] is cellular models of Huntington's disease (HD). The following applies: Skouta et al. 2014; cited from earlier work.

With `CC(c1cc2ccccc2s1)N(O)C(N)=O` (racemic) [Zileuton, (±)-1 (1-Benzo[b]thien-2-ylethyl)-1-hydroxyurea], the “effect of inhibitor on HTTQ94-mediated ferroptosis upon glutamate induction” value in test [1] is reported as “completely blocked”. In addition, the “block of mHTT-mediated ferroptosis” value in test [2] was “effectively blocked”.

For the molecule `CC(=O)N(O)CCCCCNC(=O)CCC(=O)N(O)CCCCCNC(=O)CCC(=O)N(O)CCCCCN` [DFO], the “effect of inhibitor on HTTQ94-mediated cell death upon ROS stress” value in test [3] (doxycycline 0.5 μg/ml 4 h) is “specifically blocked”.

For `Clc1cccc(CN=C2Nc3ccccc3NC23CCNCC3)c1` [Lipro-1, liproxstatin-1], the “effect of inhibitor on HTTQ94-mediated cell death upon ROS stress” value in test [3] (doxycycline 0.5 μg/ml 4 h) is “specifically blocked”.

As to `CC(C)(C)OO` [TBH, tert-butyl hydroperoxide], the “cell death induced by inducer alone” value in test [3] (TBH 10 μM 8 h, no HTTQ94 induction) is recorded as “failed to induce any cell death”. Further, the “cell death induced by inducer combined with HTTQ94 expression” value in test [3] (doxycycline 0.5 μg/ml 4 h, TBH 10 μM 8 h) is recorded as “high levels of cell death”. The “levels of anti-TfR1 antibody staining cells with inducer upon HTTQ94 induction” value in test [4] (TBH 30 μM 6 h) is on record as “dramatically increased”.

`CCOC(=O)c1ccc(NC2CCCCC2)c(N)c1` [ferrostatin-1]: in test [5], the “effect of inhibitor on HTTQ94-mediated cell death (ferroptosis) upon erastin” value is “completely inhibited”. In addition, the “effect of inhibitor on HTTQ94-mediated cell death upon ROS stress” value in test [3] (doxycycline 0.5 μg/ml 4 h) was “specifically blocked”. Moreover, the “effect of inhibitor on HTTQ94-mediated ferroptosis upon glutamate induction” value in test [1] is “inhibited”. Besides, the “effect of inhibitor on levels of anti-TfR1 antibody staining” value in test [4] (then TBH 30 μM 6 h, with Ferr-1) is listed as “abolished”. Moreover, in test [6], the “rescue of cell death” value is given as “significantly rescued”.

For `N[C@@H](CCC(=O)O)C(=O)O` [glutamate], the “cell death induced by inducer upon HTTQ94 expression” value in test [1] is recorded as “high levels of cell death”.
